According to patent US5308867A, “Platelet activating factor antagonists, named "the phomactins", their preparation and use” (Sankyo Company, Limited, priority 1988, dated 1994):

Key:
[1] = test system: arrhythmias evoked by ligation of left anterior descending coronary artery; conditions: cited from earlier work
[2] = test system: infarct size after coronary artery ligation; conditions: 5 mg kg^-1 i.v. immediately before occlusion, after 24 h of occlusion, rats, cited from earlier work
[3] = test system: platelet aggregation; assay: Antiplatelet aggregation test in rabbit platelet-rich plasma, synthetic C16:0 PAF-induced (method of Born et al.); assay type: cell-based; conditions: platelet count 6×10^5 /μl, C16:0 PAF final 1×10^-8 -3×10^-8 M; for IC50: Oryctolagus cuniculus, read-out: IC50 (concentration necessary to inhibit aggregation by 50%)
Experimental: The following antiplatelet aggregation test was performed, using the phomactin A thus obtained.
Blood was drawn from a rabbit heart and immediately mixed with nine times its volume of a 3.8% w/v aqueous solution of sodium citrate. A platelet-rich plasma (PRP) was then obtained as a supernatant by centrifugation of the blood mixture at 150×g for 15 minutes at room temperature. The precipitated fraction remaining from the blood mixture was then centrifuged for a further 15 minutes at 10,000×g to obtain a platelet-poor plasma (PPP) as a supernatant. Appropriate proportions of the PRP and the PPP were mixed to obtain a plasma having a platelet count of 6×10^5 /μl.
Platelet aggregation was determined by the method of Born et al. [Nature, 194, 927-929 (1962)] where an increase in light transmission through the test sample is measured by means of an aggregometer.
The aggregation resulting from the addition of the PAF alone, without the prior addition of the test compound, was taken as 100%.
Instead of the test solution, physiological saline was added and the aggregation at one minutes after the addition of C16 -PAF was used as the control.

[4] = Solubility; assay type: physicochemical; conditions: for Solubility in organic solvents: methanol, ethanol, acetone, ethyl acetate, chloroform, dimethyl sulfoxide, benzene and diethyl ether

SMILES	number of ectopic beats during the 30 min ischemic period (in words) ([1]; 5 mg kg^-1, 15 min before coronary artery occlusion, mongrel dogs)	Number of ectopic beats, 5-10 min of ischemia, mean ± SEM ([1]; 5 mg kg^-1 i.v. bolus 15 min before ligation, 5-10 min, dogs, p < 0.05 (Wilcoxon))	Number of ectopic beats, 10-15 min of ischemia, mean ± SEM ([1]; 5 mg kg^-1 i.v. bolus 15 min before ligation, 10-15 min, dogs, p < 0.05 (Wilcoxon))	Number of ectopic beats, 15-20 min of ischemia, mean ± SEM ([1]; 5 mg kg^-1 i.v. bolus 15 min before ligation, 15-20 min, dogs, p < 0.05 (Wilcoxon))	Number of ectopic beats, 20-25 min of ischemia, mean ± SEM ([1]; 5 mg kg^-1 i.v. bolus 15 min before ligation, 20-25 min, dogs, p < 0.05 (Wilcoxon))	Number of ectopic beats, 25-30 min of ischemia, mean ± SEM ([1]; 5 mg kg^-1 i.v. bolus 15 min before ligation, 25-30 min, dogs, p < 0.05 (Wilcoxon))	infarct size ([2]; control 26±2.2%, p<0.05)	infarct size (in words) ([2]; preliminary studies)	IC50 [3]	inhibition of platelet aggregation ([3]; at a concentration of 10 g/ml (so in the source))	Solubility in organic solvents [4]	Solubility in water [4]
CC1C(=O)OC2C(O)C34C5CC(C(C)(C)C)C36C(OC(=O)C6O)OC4(C(=O)O5)C12O (stereo not drawn) [BN-52021]	significantly reduced the number of ectopic beats	10 ± 5.4	10 ± 5.3	15 ± 6.3	55 ± 28.6	98 ± 39.0	17±1.8 % of heart tissue	significantly reduced the infarct size	–	–	–	–
CC1=CCCC2(C)OC3CC(C)C(C)(CC1)C1=C3C(O)(OC1)C2O (stereo not drawn) [Phomactin A, 3,3a-dihydroxy-2,6-(3'-methyl-3'-hexeno)-2,6,7-trimethyl-3a,5,6,7,8,8a-hexanhydrofuro[2,3,4-de]chroman]	–	–	–	–	–	–	–	–	17 µM	about 91.7%	Soluble in methanol, ethanol, acetone, ethyl acetate, chloroform, dimethyl sulfoxide, benzene and diethyl ether	insoluble in water
CC1=CCCC2(C)OC2C(=O)C2=CC(O)C(C)C(C)(CC1)C2(C)O (stereo not drawn) [Phomactin B, 13,15-dihydroxy-3,4-epoxy-2-oxo-4,8,11,12,15-pentamethylbicycl[9.3.1]pentadeca-7,14-diene]	–	–	–	–	–	–	–	–	17 µM	–	Soluble in methanol, ethanol, acetone, ethyl acetate, chloroform, dimethyl sulfoxide, benzene and diethyl ether	insoluble in water
